Measured values: patent publication US8735384B2, “Amino heteroaryl compounds as beta-secretase modulators and methods of use” (Amgen Inc., priority 2010, dated 2014)

Legend:
[1] = biological target: BACE1 (Homo sapiens, UniProt P56817); experiment: In vitro enzymatic BACE FRET assay; assay type: biochemical; details: beta secretase enzyme 0.2 nM, FRET substrate 50 nM, pH 4.2; read-out: BACE1 FRET assay (IC50 class)
Method in brief: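 Beta-secretase (0.2 nM) was pre-incubated 1 h with serially diluted inhibitor in 0.05 M acetate pH 4.2, 10% DMSO, 100 uM genapol. Then 50 nM quenched peptide FRET substrate was added for 1 h. The reaction was stopped with Tris to neutral pH and fluorescence read ([…]).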

[2] = system: Aβ40 in conditioned medium of cells stably expressing Amyloid Precursor Protein (APP); experiment: In vitro BACE cell-based assay (HEK cell assay), Aβ40 sandwich ELISA; details: Homo sapiens, HEK293, 24 h, inhibition of Aβ40, 24 h incubation, read-out: HEK cell assay (IC50 class)
Method in brief: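 APP-stably expressing cells (40K/well) grown 24 h, then treated 24 h with 10-point doses from 100 μM or 10 μM top (0.1% DMSO). Secreted Aβ40 quantified by sandwich ELISA (pAb40 capture, biotinylated 6E10 detection, europium time-resolved fluorescence); IC50 from percent inhibition versus concentration.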

Chain of BACE1 (P56817 46-501, species assumed): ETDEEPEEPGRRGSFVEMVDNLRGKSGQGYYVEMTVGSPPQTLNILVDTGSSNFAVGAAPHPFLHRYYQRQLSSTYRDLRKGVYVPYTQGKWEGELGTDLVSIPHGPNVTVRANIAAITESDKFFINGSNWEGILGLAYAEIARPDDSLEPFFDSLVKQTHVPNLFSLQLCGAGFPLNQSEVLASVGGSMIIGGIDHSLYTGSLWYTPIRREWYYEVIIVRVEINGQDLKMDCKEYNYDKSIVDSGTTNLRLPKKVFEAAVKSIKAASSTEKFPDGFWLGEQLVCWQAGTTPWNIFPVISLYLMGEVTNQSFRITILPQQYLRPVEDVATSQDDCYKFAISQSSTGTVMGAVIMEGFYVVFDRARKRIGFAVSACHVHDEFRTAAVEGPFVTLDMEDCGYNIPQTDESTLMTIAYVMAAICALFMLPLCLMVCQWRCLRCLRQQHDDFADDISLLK

Row | Compound | IC50 [1] | IC50 [2]
1 | COCCC1CN(c2cc3cc(-c4c(C)cccc4C(=O)N4CCCC4)ccc3nc2N)CCO1 (stereo not drawn) [Example 214, (2-(2-amino-3-(2-(2-methoxyethyl)morpholino)quinolin-6-yl)-3-methylphenyl)(pyrrolidin-1-yl)methanone] | < 100 nM | 100 to 500 nM
2 | Cc1cccc(C(=O)N2CCCC2)c1-c1ccc2nc(N)c(N3CCOC(C)(C)C3)cc2c1 [Example 215, (2-(2-amino-3-(2,2-dimethylmorpholino)quinolin-6-yl)-3-methylphenyl)(pyrrolidin-1-yl)methanone] | < 100 nM | 501 to 1000 nM
3 | Cc1ccc(C2(C)CN(c3cc4cc(-c5c(C)cccc5C(=O)N5CCCC5)ccc4nc3N)CCO2)cc1 (stereo not drawn) [Example 217, (2-(2-amino-3-(2-methyl-2-p-tolylmorpholino)quinolin-6-yl)-3-methylphenyl)(pyrrolidin-1-yl)methanone] | 100 to 500 nM | 1010 to 5000 nM

Other lines, results leading:

Row | IC50 [1] | IC50 [2] | Compound
4 | 501 to 1000 nM | > 5000 nM | Cc1ccccc1-c1ccc2nc(N)c(N3CCOCC3)cc2c1 [Example 218, 3-morpholino-6-o-tolylquinolin-2-amine]
5 | 501 to 1000 nM | > 5000 nM | Nc1nc2ccc(-c3ccccc3Cl)cc2cc1N1CCOCC1 [Example 219, 6-(2-chlorophenyl)-3-morpholinoquinolin-2-amine]
6 | 1010 to 5000 nM | > 5000 nM | Nc1nc2ccc(-c3ccccc3F)cc2cc1N1CCOCC1 [Example 220, 6-(2-fluorophenyl)-3-morpholinoquinolin-2-amine]
